Where a SMILES comes first, the peptide text is derived from it. Bridges are numbered along the chain shown (N, C = ends). [ ]: non-standard residue; d: D form. hPhe(3-Cl-4-CF3) = N[C@@H](CCc1ccc(C(F)(F)F)c(Cl)c1)C(=O)O; NPrPhe(4-CF3) = CCCN[C@@H](Cc1ccc(C(F)(F)F)cc1)C(=O)O; NMeGly(cPent) = CN[C@H](C(=O)O)C1CCCC1; Pro(4,4-F2) = O=C(O)[C@@H]1CC(F)(F)CN1; NMeD = CN[C@@H](CC(=O)O)C(=O)O; NMeL = CN[C@@H](CC(C)C)C(=O)O; Ac5c = NC1(C(=O)O)CCCC1; Aze = O=C(O)[C@@H]1CCN1; Sar = CNCC(=O)O
Tests used:
[1] = test system: human lung cancer strain NCI-H441; type: cell-based
Outline: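 Step one: dispense the test compound in serial DMSO dilutions. Step three: add the reagent and measure […].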

HRAS wild-type protein = HRAS wild-type protein (Homo sapiens, UniProt P01112); test: Binding to HRAS by surface plasmon resonance (SPR), KD and KD ratio to KRAS
HRAS wild-type protein, sequence (P01112 whole entry): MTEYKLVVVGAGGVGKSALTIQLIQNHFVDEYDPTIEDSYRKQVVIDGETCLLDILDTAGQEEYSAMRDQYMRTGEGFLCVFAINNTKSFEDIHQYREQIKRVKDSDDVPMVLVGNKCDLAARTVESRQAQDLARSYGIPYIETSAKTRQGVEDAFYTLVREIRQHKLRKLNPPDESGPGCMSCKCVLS
Outline: (§1)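 Biotinylated GDP-bound RAS was captured at about 100–300 RU. Running buffer: HBS pH 7.4, 10 mM MgCl2, 10 µM GDP, 1 mM DTT, 0.01% Tween 20, 4% DMSO.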

[2] = target: GDP-bound KRAS wild-type protein (Homo sapiens, UniProt P01116); test: Binding to KRAS by surface plasmon resonance (SPR), dissociation constant KD; conditions: 1:1 binding model
GDP-bound KRAS wild-type protein, sequence (P01116 1-188 isoform P01116-2): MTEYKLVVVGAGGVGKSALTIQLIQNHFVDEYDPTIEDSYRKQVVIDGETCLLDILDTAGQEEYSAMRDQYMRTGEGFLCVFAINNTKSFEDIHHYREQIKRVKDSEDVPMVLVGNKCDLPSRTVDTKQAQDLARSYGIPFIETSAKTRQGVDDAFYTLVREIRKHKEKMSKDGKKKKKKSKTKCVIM
Outline: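 GDP-bound biotin-Avi RAS captured at ~100–300 RU, 30°C, pH 7.4 HBS containing 10 µM GDP, 10 mM MgCl2, 1 mM DTT, 0.01% Tween 20 and 4% DMSO. KD by 1:1 fitting.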

[3] = target: GDP-bound NRAS wild-type protein (Homo sapiens, UniProt P01111); test: Binding to NRAS by surface plasmon resonance (SPR), KD and KD ratio to KRAS
GDP-bound NRAS wild-type protein, sequence (P01111 whole entry): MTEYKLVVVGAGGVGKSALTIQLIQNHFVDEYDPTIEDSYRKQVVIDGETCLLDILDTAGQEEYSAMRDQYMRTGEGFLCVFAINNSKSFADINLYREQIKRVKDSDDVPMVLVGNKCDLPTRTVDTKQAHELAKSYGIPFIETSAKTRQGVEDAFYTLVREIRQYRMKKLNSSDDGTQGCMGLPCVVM
Outline: as §1

[4] = ratio of the KD value with respect to HRAS wild-type protein to the KD value with respect to KRAS
[5] = ratio of the KD value with respect to GDP-bound NRAS wild-type protein to the KD value with respect to KRAS
[6] = ratio of KD for HRAS wild-type protein to KD for KRAS
[7] = ratio of KD for GDP-bound NRAS wild-type protein to KD for KRAS

| Structure (SMILES) | IC50 [1] [nM] | HRAS /KRAS (HRAS wild-type protein; [4]) | Kd ([2]; Single Cycle Kinetics) [nM] | NRAS /KRAS [3, 5] | HRAS /KRAS (HRAS wild-type protein; [6]) | Kd [2] [nM] | NRAS /KRAS [3, 7] |
| --- | --- | --- | --- | --- | --- | --- | --- |
| CCCOC[C@H]1C(=O)N[C@@H]([C@@H](C)CC)C(=O)N(C)CC(=O)N(C)[C@H]2C/C=C\CCN(C2=O)[C@@H](Cc2ccc(C(F)(F)F)cc2)C(=O)N(C)CC(=O)N[C@@H](CCc2cc(F)c(C(F)(F)F)c(F)c2)C(=O)N2C[C@@H](C)C[C@H]2C(=O)NC2(CCC2)C(=O)N(C)[C@@H](C2CCCC2)C(=O)N(C)[C@H](C(=O)N(C)CCC)CC(=O)N1C [PP2008] | 15.2 | A (a compound having 10 or more and less than 20 is denoted as A) | 0.13 | A (a compound having 10 or more and less than 20 is denoted as A) | – | – | – |
| CCCN1C(=O)CN(C)C(=O)[C@@H]2CCN2C(=O)[C@H]([C@@H](C)CC)NC(=O)[C@H](CC(C)C)N(C)C(=O)C[C@@H](C(=O)N(C)C)N(C)C(=O)[C@H](C2CCCC2)N(C)C(=O)C2(CCCC2)NC(=O)[C@@H]2CC(F)(F)CN2C(=O)[C@H](CCc2ccc(C(F)(F)F)c(Cl)c2)NC(=O)CN(C)C(=O)[C@@H]1Cc1ccc(C(F)(F)F)cc1 [PP0431] ([NMeL]I[Aze][Sar][NPrPhe(4-CF3)][Sar][hPhe(3-Cl-4-CF3)][Pro(4,4-F2)][Ac5c][NMeGly(cPent)][NMeD]-NMe2; lactam N-11) | 9.9 | C (A compound having a KD ratio of 0.1 or more and less than 3 is denoted as C) | 0.35 | B (a compound having 3 or more and less than 10 is denoted as B) | – | – | – |
| CCC[C@@H]1C[C@H]2C(=O)NC3(CC(C)(C)C3)C(=O)N(C)[C@@H](C3CCCC3)C(=O)N(C)[C@H](C(=O)N(C)C)CC(=O)N(C)[C@@H](CCC)C(=O)N[C@@H]([C@@H](C)CC)C(=O)N(C)CC(=O)N(C)[C@H]3C/C=C\CCN(C3=O)[C@@H](Cc3ccc(C)cc3)C(=O)N(C)CC(=O)N[C@@H](CCc3ccc(C(F)(F)F)c(Cl)c3)C(=O)N2C1 [PP2214] | 29.6 | A (a compound having 10 or more and less than 20 is denoted as A) | 0.3 | A (a compound having 10 or more and less than 20 is denoted as A) | – | – | – |
| CCO[C@@H]1C[C@H]2C(=O)NC3(CC(C)(C)C3)C(=O)N(C)[C@@H](C3CCCC3)C(=O)N(C)[C@H](C(=O)N(C)CC)CC(=O)N(C)[C@@H](CC(C)C)C(=O)N[C@@H]([C@@H](C)CC)C(=O)N(C)CC(=O)N(C)[C@H]3C/C=C\CCN(C3=O)[C@@H](Cc3ccc(C(F)F)cc3)C(=O)N(C)CC(=O)N[C@@H](CCc3cc(C)c(C(F)F)c(F)c3)C(=O)N2C1 [PP3145] | 29.9 | – | – | – | A (a compound having 10 or more and less than 20 is denoted as A) | 0.69 | A (a compound having 10 or more and less than 20 is denoted as A) |
| CCC[C@H]1C(=O)N[C@@H]([C@@H](C)CC)C(=O)N(C)CC(=O)N(C)[C@H]2C/C=C\CCN(C2=O)[C@@H](Cc2ccc(C)cc2)C(=O)N(C)CC(=O)N[C@@H](CCc2cc(F)c(C(F)(F)F)c(F)c2)C(=O)N2C[C@H](CC)C[C@H]2C(=O)NC2(CCCC2)C(=O)N(C)[C@@H](C2CCCC2)C(=O)N(C)[C@H](C(=O)N(C)C)CC(=O)N1C [PP2216] | 50.8 | A (a compound having 10 or more and less than 20 is denoted as A) | 0.23 | A (a compound having 10 or more and less than 20 is denoted as A) | – | – | – |
| CCC[C@H]1C(=O)N[C@@H]([C@@H](C)CC)C(=O)N(C)CC(=O)N(C)[C@H]2C/C=C\CCN(C2=O)[C@@H](Cc2ccc(C)cc2)C(=O)N(C)CC(=O)N[C@@H](CCc2ccc3sc(C)c(C)c3c2)C(=O)N2C[C@H](OCC)C[C@H]2C(=O)NC2(CC(C)(C)C2)C(=O)N(C)[C@@H](C2CCCC2)C(=O)N(C)[C@H](C(=O)N(C)C)CC(=O)N1C [PP2891] | 17.2 | – | – | – | B (a compound having 3 or more and less than 10 is denoted as B) | 0.33 | A (a compound having 10 or more and less than 20 is denoted as A) |
| CCO[C@@H]1C[C@H]2C(=O)NC3(CC(C)(C)C3)C(=O)N(C)[C@@H](C3CCCC3)C(=O)N(C)[C@H](C(=O)N(C)CC)CC(=O)N(C)[C@@H](CC(C)C)C(=O)N[C@@H]([C@@H](C)CC)C(=O)N(C)CC(=O)N(C)[C@H]3C/C=C\CCN(C3=O)[C@@H](Cc3ccc(C(F)F)cc3)C(=O)N(C)CC(=O)N[C@@H](CCc3cc(F)c(CC)c(OC)c3)C(=O)N2C1 [PP3143] | 41 | – | – | – | A (a compound having 10 or more and less than 20 is denoted as A) | 0.66 | A (a compound having 10 or more and less than 20 is denoted as A) |
| CCO[C@@H]1C[C@H]2C(=O)NC3(CC(C)(C)C3)C(=O)N(C)[C@@H](C(CC)CC)C(=O)N(C)[C@H](C(=O)N(C)C)CC(=O)N(C)[C@@H](CC3CC3)C(=O)N[C@@H]([C@@H](C)CC)C(=O)N(C)CC(=O)N(C)[C@H]3C/C=C\CCN(C3=O)[C@@H](Cc3ccc(C)cc3)C(=O)N(C)CC(=O)N[C@@H](CCc3ccc(C(F)(F)F)c(Cl)c3)C(=O)N2C1 [PP2142] | 10.3 | A (a compound having 10 or more and less than 20 is denoted as A) | 0.3 | AA (a compound having 20 or more is denoted as AA) | – | – | – |
| CC[C@H](C)[C@@H]1NC(=O)[C@H](CC(C)C)N(C)C(=O)C[C@@H](C(=O)N2CCOCC2)N(C)C(=O)[C@H](C2CCCC2)N(C)C(=O)[C@](C)(CC)NC(=O)[C@@H]2CCCN2C(=O)[C@H](CCc2cc(F)c(C(F)(F)F)c(F)c2)NC(=O)CN(C)C(=O)[C@H](Cc2ccc(C(F)(F)F)cc2)N2CCCCC[C@@H](C2=O)N(C)C(=O)CN(C)C1=O [PP0500] | 963 | B (a compound having 3 or more and less than 10 is denoted as B) | 18 | B (a compound having 3 or more and less than 10 is denoted as B) | – | – | – |
| CCO[C@@H]1C[C@H]2C(=O)NC3(CC(C)(C)C3)C(=O)N(C)[C@@H](C3CCCC3)C(=O)N(C)[C@H](C(=O)N(C)CC)CC(=O)N(C)[C@@H](CC(C)C)C(=O)N[C@@H]([C@@H](C)CC)C(=O)N(C)CC(=O)N(C)[C@H]3C/C=C\CCN(C3=O)[C@@H](Cc3ccc(C(F)F)cc3)C(=O)N(C)CC(=O)N[C@@H](CCc3ccc(C(F)(F)F)c(C4CC4)c3)C(=O)N2C1 [PP3151] | 18.6 | – | – | – | A (a compound having 10 or more and less than 20 is denoted as A) | 0.23 | A (a compound having 10 or more and less than 20 is denoted as A) |
| CCO[C@@H]1C[C@H]2C(=O)NC3(CC(C)(C)C3)C(=O)N(C)[C@@H](C(CC)CC)C(=O)N(C)[C@H](C(=O)N(C)C)CC(=O)N(C)[C@H]3CC/C=C/c4ccc(cc4)C[C@@H](C(=O)N(C)CC(=O)N[C@@H](CCc4cc(F)c(C(F)(F)F)c(F)c4)C(=O)N2C1)N1CC/C=C\C[C@@H](C1=O)N(C)C(=O)CN(C)C(=O)[C@H]([C@@H](C)CC)NC3=O [PP2586] | 14.4 | – | – | – | B (a compound having 3 or more and less than 10 is denoted as B) | 0.17 | A (a compound having 10 or more and less than 20 is denoted as A) |
| CC[C@H](C)[C@@H]1NC(=O)[C@H](CC(C)C)N(C)C(=O)C[C@@H](C(=O)N2C3CCC2COC3)N(C)C(=O)[C@H](C2CCCC2)N(C)C(=O)C2(CCCC2)NC(=O)[C@@H]2CCCN2C(=O)[C@H](CCc2cc(F)c(C(F)(F)F)c(F)c2)NC(=O)CN(C)C(=O)[C@H](Cc2ccc(C(F)(F)F)cc2)N2CCCC[C@@H](C2=O)N(C)C(=O)CN(C)C1=O [PP0573] | 8.7 | B (a compound having 3 or more and less than 10 is denoted as B) | 0.34 | B (a compound having 3 or more and less than 10 is denoted as B) | – | – | – |
| CCC[C@H]1C(=O)N[C@@H](C2CCCC2)C(=O)N(C)CC(=O)N(C)[C@H]2C/C=C\CCN(C2=O)[C@@H](Cc2ccc(C)cc2)C(=O)N(C)CC(=O)N[C@@H](CCc2ccc(C(F)(F)F)c(OC)c2)C(=O)N2C[C@H](OCC)C[C@H]2C(=O)NC2(CC(C)(C)C2)C(=O)N(C)[C@@H](CC(C)(C)C)C(=O)N(C)[C@H](C(=O)N(C)C)CC(=O)N1C [PP3005] | 8.8 | – | – | – | B (a compound having 3 or more and less than 10 is denoted as B) | 0.15 | A (a compound having 10 or more and less than 20 is denoted as A) |
| CCCOC[C@H]1C(=O)N[C@@H]([C@@H](C)CC)C(=O)N(C2CC2)CC(=O)N(C)[C@H]2C/C=C\CCN(C2=O)[C@@H](CC2CCC(F)(F)CC2)C(=O)N(C)CC(=O)N[C@@H](CCc2ccc(C(F)(F)F)c(OC)c2)C(=O)N2C[C@H](OCC)C[C@H]2C(=O)N(C)C2(CCC2)C(=O)N(C)[C@@H](C2CCCC2)C(=O)N(C)[C@H](C(=O)N(C)C)CC(=O)N1C [PP2354] | 9.3 | A (a compound having 10 or more and less than 20 is denoted as A) | 0.79 | A (a compound having 10 or more and less than 20 is denoted as A) | – | – | – |
| CCO[C@@H]1C[C@H]2C(=O)NC3(CCC3)C(=O)N(C)[C@@H](C3CCCC3)C(=O)N(CCC3CCC3)[C@H](C(=O)N3CCOCC3)CC(=O)N(C)[C@@H](CC(C)C)C(=O)N[C@@H]([C@@H](C)CC)C(=O)N(C)CC(=O)N(C)[C@H]3CCCCCN(C3=O)[C@@H](Cc3ccc(C(F)(F)F)cc3)C(=O)N(C)CC(=O)N[C@@H](CCc3cc(F)c(C(F)(F)F)c(F)c3)C(=O)N2C1 [PP0640] | > 600 | B (a compound having 3 or more and less than 10 is denoted as B) | 20 | B (a compound having 3 or more and less than 10 is denoted as B) | – | – | – |
